What all share (assay): direct fluorescence titration of TBG into fluorophore
Common to all, as to assay type: binding

For assay [1], the target named is T1, TBG (wild-type, native, intact reactive loop) (Homo sapiens, UniProt P05543).
T1 sequence (P05543 21-415): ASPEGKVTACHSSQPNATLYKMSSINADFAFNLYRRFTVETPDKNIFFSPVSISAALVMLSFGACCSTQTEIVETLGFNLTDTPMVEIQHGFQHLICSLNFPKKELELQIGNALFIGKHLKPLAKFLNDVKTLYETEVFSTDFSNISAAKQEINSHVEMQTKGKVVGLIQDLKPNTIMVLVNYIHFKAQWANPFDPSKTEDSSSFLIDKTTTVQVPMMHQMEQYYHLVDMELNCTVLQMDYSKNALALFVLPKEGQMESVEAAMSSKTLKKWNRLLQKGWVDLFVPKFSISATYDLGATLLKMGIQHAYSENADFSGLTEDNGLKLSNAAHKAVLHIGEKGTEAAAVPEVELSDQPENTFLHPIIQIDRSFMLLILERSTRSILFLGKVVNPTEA

The target in assay [2] is T2, cleaved TBG (wild-type, reactive loop cleaved) (Homo sapiens, UniProt P05543, DEL124-126/K123A).
T2 sequence (P05543 with tags, fused parts or gaps K123A/DEL124-126): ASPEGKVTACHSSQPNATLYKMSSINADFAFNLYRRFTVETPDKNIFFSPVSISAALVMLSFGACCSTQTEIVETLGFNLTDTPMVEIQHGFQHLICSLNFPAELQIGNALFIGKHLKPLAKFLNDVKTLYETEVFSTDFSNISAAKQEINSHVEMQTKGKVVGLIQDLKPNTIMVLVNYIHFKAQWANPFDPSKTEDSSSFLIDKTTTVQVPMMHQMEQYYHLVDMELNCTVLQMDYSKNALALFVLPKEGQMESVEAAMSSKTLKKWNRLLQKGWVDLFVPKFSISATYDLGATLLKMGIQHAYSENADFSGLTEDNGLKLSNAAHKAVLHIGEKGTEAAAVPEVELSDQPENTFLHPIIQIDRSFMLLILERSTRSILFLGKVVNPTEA

Assay [3] addresses T3, TBG (wild-type, native, intact reactive loop) (Homo sapiens, UniProt P05543, DEL124-126/K123A).
T3 sequence (P05543 with tags, fused parts or gaps K123A/DEL124-126): T2 sequence (P05543 with tags, fused parts or gaps K123A/DEL124-126)

Here are results for two compounds from article PMC3091225 (The Journal of Biological Chemistry, 2011).

Each structure is given as a SMILES string.

With `O=C(N[C@@H](Cc1cc(I)c(Oc2cc(I)c(O)c(I)c2)c(I)c1)C(=O)O)c1ccc2c(c1)C(=O)OC21c2ccc(O)cc2Oc2cc(O)ccc21` [T4–5-CF], the Kd in assay [1] is less than 0.1 nM. In the case of `O=C(N[C@@H](Cc1cc(I)c(Oc2cc(I)c(O)c(I)c2)c(I)c1)C(=O)O)c1ccc2c(c1)C1(OC2=O)c2ccc(O)cc2Oc2cc(O)ccc21` [T4–6-CF], the values for the dissociation constant (Kd) in assay [2] and in assay [3] were 50.7 ± 3.6 nM and 24.9 ± 1.8 nM, respectively.
